Data set [1] in a line: Example 6.1: body weight of LXFL 529 tumor-bearing mice. The class given is in vivo, NMRI nu/nu mice. As to conditions: FIG. 14. The procedure:
The application volume was 20 ml/kg mouse body weight for saline and Voluven® 10% and 10 ml/kg of the 1 mg/ml solution for Everolimus (administered final dose 10 mg/kg). The route of administration was by i.v. injection into the tail vein for saline and Voluven® 10%. 10 mg/kg of body weight Everolimus was administered p.o.

For data set [2], the system named is human prostate carcinoma cell line PC-3. Nature of the data set: Example 4: PC-3 xenograft tumor growth in nude mice. As to conditions: 3 week observation period; FIG. 5. The class given is in vivo. As to the method: In another study which was performed in analogy to the study described above, the effect of “Voluven 10%” was tested on a different cancer cell line, i.e. on prostate cancer cell line PC3.
The rapidly growing human prostate carcinoma cell line PC-3 was used as xenograft tumor model in nude mice to test the efficacy of Voluven® 10% on reduction of tumour growth rates. Paclitaxel was employed as positive control and saline as negative control.
• Strain: NMRI nude (homozygous)-Rj:NMRI-nu • Sex: Female • Supplier: Elevage Janvier, Route des Chènes Secs, 53940 Le Genest St. Isle, France • Health status: SPF • Age at delivery: 5-6 weeks • Acclimatization: At least 6 days […]
Tumor measurement: The tumor growth was measured three times a week (e.g. Monday, Wednesday, and Friday) beginning with study day 3 (tumor measurable at size approx. 3 mm in diameter). Tumor volumes were calculated according to V=(length×(width)^2)/2. […]
To prepare the paclitaxel solution at a concentration of 2.5 mg/ml the paclitaxel stock solution (6 mg/ml) was diluted with 0.9% isotonic saline. […] Saline and Voluven® 10% were provided as ready-to-use formulations. […]
Statistical analyses of data were performed for each group separately. Group medians were calculated for body weights and tumor measurements for each investigation time. […] For the evaluation of tumor volume/area and T/C values were calculated using Microsoft Excel 7.0.

The nature of data set [3]: Example 6.2: body weight of LXFE 397 tumor-bearing mice. It counts as in vivo, NMRI nu/nu mice. As to conditions: FIG. 16. The procedure: The application volume was 20 ml/kg mouse body weight for saline and Voluven® 10% (i.v.) and 100 mg/kg for Capecitabine (p.o.).

“Also recorded” adds a separate entry of the source.

Turning to `CO[C@H]1C[C@@H]2CC[C@@H](C)[C@@](O)(O2)C(=O)C(=O)N2CCCC[C@H]2C(=O)O[C@H]([C@H](C)C[C@@H]2CC[C@@H](OCCO)[C@H](OC)C2)CC(=O)[C@H](C)/C=C(\C)[C@@H](O)[C@@H](OC)C(=O)[C@H](C)C[C@H](C)/C=C/C=C/C=C/1C` [Everolimus], the “body weight (in words)” value in data set [1] was “slight reduction”.
For the compound `CC(=O)O[C@H]1C(=O)[C@@]2(C)[C@H]([C@H](OC(=O)c3ccccc3)[C@]3(O)C[C@H](OC(=O)[C@H](O)[C@@H](NC(=O)c4ccccc4)c4ccccc4)C(C)=C1C3(C)C)[C@]1(OC(C)=O)CO[C@@H]1C[C@@H]2O` [paclitaxel, Paclitaxel], in data set [2], the “effect on tumor volume (in words)” value is “stable tumour size or reduced the tumor volume; also recorded: decrease of the initial tumor volume”.
In the case of `CCCCCOC(=O)Nc1nc(=O)n([C@@H]2O[C@H](C)[C@@H](O)[C@H]2O)cc1F` [Capecitabine], in data set [3], the “body weight (in words)” value was “not reduced”.

(Values after patent publication US20160082036A1, “HYDROXYALKYL STARCH FOR THE TREATMENT OF CANCERS BY REDUCTION OF TUMOR GROWTH RATES” (Fresenius Kabi Deutschland GmbH, priority 2012, published 2016).)
